According to US20260262643A1, “HERBICIDAL BENZOXAZINES” (FMC CORPORATION, priority 2022, published 2026):

Experiments:
barnyardgrass [1] = experiment: Test C preemergence; format: in vivo, Echinochloa crusgalli; conditions: 0 to 100 scale (0 no effect, 100 complete control)
Outline: (§1)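 Greenhouse herbicide screen, 10-day duration. Test chemicals in solvent/surfactant blend were sprayed onto soil at sowing (pre) or onto 2–10 cm seedlings at one to two leaves (post); injury scored visually against controls, 0 no effect to 100 complete control.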

blackgrass [2] = experiment: Test C preemergence; format: in vivo, Alopecurus myosuroides; conditions: 0 to 100 scale (0 no effect, 100 complete control)
Outline: as §1

corn [3] = experiment: Test C preemergence; format: in vivo, Zea mays; conditions: 0 to 100 scale (0 no effect, 100 complete control)
Outline: as §1

green foxtail [4] = experiment: Test C preemergence; format: in vivo, Setaria viridis; conditions: 0 to 100 scale (0 no effect, 100 complete control)
Outline: as §1

kochia [5] = experiment: Test C preemergence; format: in vivo, Bassia scoparia; conditions: 0 to 100 scale (0 no effect, 100 complete control)
Outline: as §1

oat, wild [6] = experiment: Test C preemergence; format: in vivo, Avena fatua; conditions: 0 to 100 scale (0 no effect, 100 complete control)
Outline: as §1

pigweed, palmer [7] = experiment: Test C preemergence; format: in vivo, Amaranthus palmeri; conditions: 0 to 100 scale (0 no effect, 100 complete control)
Outline: as §1

ragweed [8] = experiment: Test C preemergence; format: in vivo, Ambrosia artemisiifolia; conditions: 0 to 100 scale (0 no effect, 100 complete control)
Outline: as §1

ryegrass, Italian [9] = experiment: Test C preemergence; format: in vivo, Lolium multiflorum; conditions: 0 to 100 scale (0 no effect, 100 complete control)
Outline: as §1

soybean [10] = experiment: Test C preemergence; format: in vivo, Glycine max; conditions: 0 to 100 scale (0 no effect, 100 complete control)
Outline: as §1

wheat [11] = experiment: Test C preemergence; format: in vivo, Triticum aestivum; conditions: 0 to 100 scale (0 no effect, 100 complete control)
Outline: as §1

barnyardgrass [12] = experiment: Test C postemergence; format: in vivo, Echinochloa crusgalli; conditions: 10 days
Outline: as §1

blackgrass [13] = experiment: Test C postemergence; format: in vivo, Alopecurus myosuroides; conditions: 10 days
Outline: as §1

corn [14] = experiment: Test C postemergence; format: in vivo, Zea mays; conditions: 10 days
Outline: as §1

green foxtail [15] = experiment: Test C postemergence; format: in vivo, Setaria viridis; conditions: 10 days
Outline: as §1

kochia [16] = experiment: Test C postemergence; format: in vivo, Bassia scoparia; conditions: 10 days
Outline: as §1

oat, wild [17] = experiment: Test C postemergence; format: in vivo, Avena fatua; conditions: 10 days
Outline: as §1

pigweed, palmer [18] = experiment: Test C postemergence; format: in vivo, Amaranthus palmeri; conditions: 10 days
Outline: as §1

ragweed [19] = experiment: Test C postemergence; format: in vivo, Ambrosia artemisiifolia; conditions: 10 days
Outline: as §1

ryegrass, Italian [20] = experiment: Test C postemergence; format: in vivo, Lolium multiflorum; conditions: 10 days
Outline: as §1

soybean [21] = experiment: Test C postemergence; format: in vivo, Glycine max; conditions: 10 days
Outline: as §1

wheat [22] = experiment: Test C postemergence; format: in vivo, Triticum aestivum; conditions: 10 days
Outline: as §1

galium = experiment: Test C postemergence; format: in vivo, Galium aparine; conditions: 10 days
Outline: as §1

horseweed = experiment: Test C postemergence; format: in vivo, Erigeron canadensis; conditions: 10 days
Outline: as §1

barnyardgrass [23] = experiment: Test D flooded paddy test; format: in vivo, Echinochloa crus-galli; conditions: 250 g ai/ha, applied to paddy water, visual rating after 13 to 14 days, scale 0 to 100 (0 no effect, 100 complete control)
Outline: (§2)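 Plants at the 2-leaf stage were grown in pots flooded to 3 cm, and compound was applied directly into the paddy water, with depth kept throughout. After 13–14 days in a greenhouse, injury was rated visually against untreated controls on a 0–100 scale (100 = complete control); a dash means not tested.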

ducksalad = experiment: Test D flooded paddy test; format: in vivo, Heteranthera limosa; conditions: 250 g ai/ha, applied to paddy water, visual rating after 13 to 14 days, scale 0 to 100 (0 no effect, 100 complete control)
Outline: as §2

rice = experiment: Test D flooded paddy test; format: in vivo, Oryza sativa; conditions: 250 g ai/ha, applied to paddy water, visual rating after 13 to 14 days, scale 0 to 100 (0 no effect, 100 complete control)
Outline: as §2

sedge, umbrella = experiment: Test D flooded paddy test; format: in vivo, Cyperus difformis; conditions: 250 g ai/ha, applied to paddy water, visual rating after 13 to 14 days, scale 0 to 100 (0 no effect, 100 complete control)
Outline: as §2

[24] = Preemergence, 500 g ai/ha, visual rating after 10 days
[25] = Test C, preemergence, 125 g ai/ha
[26] = 125 g ai/ha, postemergence, 0 to 100 scale, 0 no effect, 100 complete control
[27] = Postemergence, 500 g ai/ha, visual 0 to 100 scale (0 no effect, 100 complete control)

For `COC[C@H]1CN(C(=O)c2cc(-n3cnc(C(C)(C)C)n3)ccc2C)c2cccc(Cl)c2O1` [Compound 264], which “Plant response rating, Barnyardgrass” value (barnyardgrass [1]; [24]) is on record?
The value was 100.

What about the “Barnyardgrass plant response rating” value (barnyardgrass [1]; [25]) of the same molecule?
The value was 70.

And the “Plant response rating, Blackgrass” value (blackgrass [2]; [24])?
The value was 80.

And the “Blackgrass plant response rating” value (blackgrass [2]; [25])?
The value was 40.

What about the “Plant response rating, Corn” value (corn [3]; [24]) of the same molecule?
The value was 50.

What about the “Corn plant response rating” value (corn [3]; [25]) of the same molecule?
The value was 30.

And the “Plant response rating, Foxtail, Green” value (green foxtail [4]; [24])?
Its value is 100.

What about the “Foxtail, Green plant response rating” value (green foxtail [4]; [25]) of the same molecule?
The value was 100.

What about the “Plant response rating, Kochia” value (kochia [5]; [24]) of the same molecule?
Its value is 100.

And the “Kochia plant response rating” value (kochia [5]; [25])?
Its value is 90.

What about the “Plant response rating, Oat, Wild” value (oat, wild [6]; [24]) of the same molecule?
Its value is 90.

What about the “Oat, Wild plant response rating” value (oat, wild [6]; [25]) of the same molecule?
The value was 90.

What about the “Plant response rating, Pigweed, Palmer” value (pigweed, palmer [7]; [24]) of the same molecule?
The value was 100.

What about the “Pigweed, Palmer plant response rating” value (pigweed, palmer [7]; [25]) of the same molecule?
The value was 100.

And the “Plant response rating, Ragweed” value (ragweed [8]; [24])?
Its value is 80.

What about the “Ragweed plant response rating” value (ragweed [8]; [25]) of the same molecule?
Its value is 60.

What about the “Plant response rating, Ryegrass, Italian” value (ryegrass, Italian [9]; [24]) of the same molecule?
The value was 90.

And the “Ryegrass, Italian plant response rating” value (ryegrass, Italian [9]; [25])?
The value was 90.

What about the “Plant response rating, Soybean” value (soybean [10]; [24]) of the same molecule?
The value was 80.

What about the “Soybean plant response rating” value (soybean [10]; [25]) of the same molecule?
The value was 90.

And the “Plant response rating, Wheat” value (wheat [11]; [24])?
Its value is 60.

And the “Wheat plant response rating” value (wheat [11]; [25])?
The value was 0.

And the “Plant response rating, Barnyardgrass” value (barnyardgrass [12]; [26])?
The value was 50.

And the “Plant response rating, Barnyardgrass” value (barnyardgrass [12]; [27])?
Its value is 90.

What about the “Plant response rating, Blackgrass” value (blackgrass [13]; [26]) of the same molecule?
The value was 40.

And the “Plant response rating, Blackgrass” value (blackgrass [13]; [27])?
The value was 60.

What about the “Plant response rating, Corn” value (corn [14]; [26]) of the same molecule?
The value was 30.

And the “Plant response rating, Corn” value (corn [14]; [27])?
The value was 80.

What about the “Plant response rating, Foxtail, Green” value (green foxtail [15]; [26]) of the same molecule?
Its value is 20.

What about the “Plant response rating, Foxtail, Green” value (green foxtail [15]; [27]) of the same molecule?
Its value is 90.

What about the “Plant response rating, Kochia” value (kochia [16]; [26]) of the same molecule?
The value was 80.

And the “Plant response rating, Kochia” value (kochia [16]; [27])?
Its value is 100.

What about the “Plant response rating, Oat, Wild” value (oat, wild [17]; [26]) of the same molecule?
Its value is 10.

What about the “Plant response rating, Oat, Wild” value (oat, wild [17]; [27]) of the same molecule?
Its value is 50.

And the “Plant response rating, Pigweed, Palmer” value (pigweed, palmer [18]; [26])?
Its value is 90.

What about the “Plant response rating, Pigweed, Palmer” value (pigweed, palmer [18]; [27]) of the same molecule?
Its value is 90.

What about the “Plant response rating, Ragweed” value (ragweed [19]; [26]) of the same molecule?
Its value is 80.

What about the “Plant response rating, Ragweed” value (ragweed [19]; [27]) of the same molecule?
The value was 90.

What about the “Plant response rating, Ryegrass, Italian” value (ryegrass, Italian [20]; [26]) of the same molecule?
The value was 50.

And the “Plant response rating, Ryegrass, Italian” value (ryegrass, Italian [20]; [27])?
The value was 90.

And the “Plant response rating, Soybean” value (soybean [21]; [26])?
Its value is 100.

And the “Plant response rating, Soybean” value (soybean [21]; [27])?
The value was 100.

What about the “Plant response rating, Wheat” value (wheat [22]; [26]) of the same molecule?
Its value is 20.

And the “Plant response rating, Wheat” value (wheat [22]; [27])?
The value was 30.

What about the “Plant response rating, Galium” value (galium; [26]) of the same molecule?
The value was 100.

And the “Plant response rating, Galium” value (galium; [27])?
Its value is 100.

What about the “Plant response rating, Horseweed” value (horseweed; [26]) of the same molecule?
Its value is 20.

What about the “Plant response rating, Horseweed” value (horseweed; [27]) of the same molecule?
The value was 60.

What about the “Plant response rating, Barnyardgrass (Flood)” value (barnyardgrass [23]) of the same molecule?
Its value is 35.

And the “Plant response rating, Ducksalad (Flood)” value (ducksalad)?
Its value is 75.

What about the “Plant response rating, Rice (Flood)” value (rice) of the same molecule?
Its value is 10.

And the “Plant response rating, Sedge, Umbrella (Flood)” value (sedge, umbrella)?
The value was 80.
